Several values for one entry are separate records, joined by “and”; a condition that tells them apart may be missing. Equal entries are not always repeated. Numbers after ± are expanded uncertainties.
Conditions: Fluid (supercritical or subcritical phases), Impulsive stimulated scattering

N [ammonia]
Conditions	speed of sound
297 K, 620000 kPa	2741 ± 12 m/s
297 K, 700000 kPa	2836 ± 12 m/s
297 K, 780000 kPa	2942 ± 12 m/s and 2932 ± 12 m/s
297 K, 880000 kPa	3023 ± 12 m/s
297 K, 970000 kPa	3113 ± 13 m/s
298 K, 370000 kPa	2376 ± 11 m/s
298 K, 740000 kPa	2903 ± 12 m/s
474 K, 1430000 kPa	3280 ± 13 m/s
476 K, 1550000 kPa	3375 ± 14 m/s
476 K, 2200000 kPa	3788 ± 15 m/s
477 K, 1090000 kPa	2954 ± 12 m/s
479 K, 2220000 kPa	3797 ± 18 m/s
678 K, 2920000 kPa	4000 ± 16 m/s
678 K, 3080000 kPa	4072 ± 16 m/s
678 K, 3140000 kPa	4103 ± 17 m/s
679 K, 1480000 kPa	3084 ± 13 m/s
679 K, 2440000 kPa	3740 ± 15 m/s
679 K, 3750000 kPa	4342 ± 17 m/s
680 K, 1350000 kPa	2982 ± 12 m/s and 2970 ± 12 m/s
